Assay results as given in ChEMBL document CHEMBL4411307, “N,N'-diaryl-bishydrazones in a biphenyl platform: Broad spectrum antifungal agents” (Eur J Med Chem, 2019).
In brackets after ≈: the same amount, converted by molar mass. Activity calls are given as the source filed them. The rule behind the calls is not given here.

Legend:
[1] = Hemolytic activity in mouse RBC at 3.9 ug/ml after 1 hr relative to control; type: ADME, cell-based, Erythrocyte; details: red blood cells (erythrocytes), read-out: Activity
[2] = Selectivity index, ratio of compound concentration showing <20 to <30% hemolysis in mouse RBC to MIC for fluconazole/ITC-susceptible Candida albicans ATCC MYA-2876; type: toxicity; details: red blood cells (erythrocytes), read-out: Selectivity Index
Candida albicans [3] = assay: Antifungal activity against fluconazole/ITC-susceptible Candida albicans ATCC MYA-2876 measured after 48 hrs by CLSI M27-A3 protocol based method; type: functional; details: ATCC MYA-2876, 48 h
[4] = Selectivity index, ratio of CC50 for human A549 cells to MIC for fluconazole/ITC-resistant Candida albicans ATCC MYA-1003; type: toxicity; details: read-out: Selectivity Index
[5] = Selectivity index, ratio of compound concentration showing <20 to <30% hemolysis in mouse RBC to MIC for Candida glabrata ATCC 2001; type: toxicity; details: mouse red blood cells (RBC), read-out: Selectivity Index
[6] = Selectivity index, ratio of CC50 for human A549 cells to MIC for Aspergillus nidulans ATCC 38163; type: toxicity; details: read-out: Selectivity Index
[7] = Hemolytic activity in mouse RBC at 62.5 ug/ml after 1 hr relative to control; type: ADME, cell-based, Erythrocyte; details: red blood cells (erythrocytes), read-out: Activity
Aspergillus flavus = assay: Antifungal activity against Aspergillus flavus ATCC MYA-3631 measured after 48 hrs by CLSI M38-A2 protocol based method; type: functional; details: ATCC MYA-3631, 48 h
[8] = Selectivity index, ratio of CC50 for human A549 cells to MIC for fluconazole/ITC-susceptible Candida albicans ATCC MYA-2310; type: toxicity; details: read-out: Selectivity Index
Enterococcus = assay: Antibacterial activity against vancomycin-resistant Enterococcus; type: functional, organism-based
Candida albicans [9] = assay: Antifungal activity against fluconazole/ITC-resistant Candida albicans ATCC 64124 measured after 48 hrs by CLSI M27-A3 protocol based method; type: functional; details: ATCC 64124, 48 h
[10] = Hemolytic activity in mouse RBC at 1.95 ug/ml after 1 hr relative to control; type: ADME, cell-based, Erythrocyte; details: red blood cells (erythrocytes), read-out: Activity
[11] = Hemolytic activity in mouse RBC at […] ug/ml after 1 hr relative to control; type: ADME, cell-based, Erythrocyte; details: red blood cells (erythrocytes), read-out: Activity
Staphylococcus aureus = assay: Antibacterial activity against methicillin-resistant Staphylococcus aureus; type: functional, organism-based
[12] = Selectivity index, ratio of compound concentration showing <20 to <30% hemolysis in mouse RBC to MIC for Aspergillus terreus ATCC MYA-3633; type: toxicity; details: mouse red blood cells (RBC), read-out: Selectivity Index
[13] = Hemolytic activity in mouse RBC at 7.8 ug/ml after 1 hr relative to control; type: ADME, cell-based, Erythrocyte; details: red blood cells (erythrocytes), read-out: Activity
[14] = Selectivity index, ratio of CC50 for human A549 cells to MIC for fluconazole/ITC-resistant Candida albicans ATCC 10231; type: toxicity; details: read-out: Selectivity Index
[15] = Hemolytic activity in mouse RBC at […] after 1 hr relative to control; type: ADME, cell-based, Erythrocyte; details: red blood cells (erythrocytes), read-out: Activity; also: tested at 0.48 µg/mL
[16] = Selectivity index, ratio of compound concentration showing <20 to <30% hemolysis in mouse RBC to MIC for Aspergillus flavus ATCC MYA-3631; type: toxicity; details: mouse red blood cells (RBC), read-out: Selectivity Index
[17] = Selectivity index, ratio of CC50 for human A549 cells to MIC for fluconazole/ITC-resistant Candida albicans ATCC 64124; type: toxicity; details: read-out: Selectivity Index
[18] = Selectivity index, ratio of CC50 for human A549 cells to MIC for fluconazole/ITC-resistant Candida albicans ATCC 90819; type: toxicity; details: read-out: Selectivity Index
Aspergillus terreus = assay: Antifungal activity against Aspergillus terreus ATCC MYA-3633 measured after 48 hrs by CLSI M38-A2 protocol based method; type: functional; details: ATCC MYA-3633, 48 h
[19] = Selectivity index, ratio of CC50 for human A549 cells to MIC for fluconazole/ITC-susceptible Candida albicans ATCC MYA-2876; type: toxicity; details: read-out: Selectivity Index
Candida albicans [20] = assay: Antifungal activity against fluconazole/ITC-resistant Candida albicans ATCC 90819 measured after 48 hrs by CLSI M27-A3 protocol based method; type: functional; details: ATCC 90819, 48 h
BEAS-2B = assay: Cytotoxicity against human BEAS2B cells after 24 hrs by resazurin based assay; type: cell-based
Candida albicans [21] = assay: Antifungal activity against fluconazole/ITC-resistant Candida albicans ATCC 10231 measured after 48 hrs by CLSI M27-A3 protocol based method; type: functional; details: ATCC 10231, 48 h
Listeria monocytogenes = assay: Antibacterial activity against Listeria monocytogenes; type: functional, organism-based
[22] = Selectivity index, ratio of compound concentration showing <20 to <30% hemolysis in mouse RBC to MIC for fluconazole/ITC-resistant Candida albicans ATCC MYA-1003; type: toxicity; details: mouse red blood cells (RBC), read-out: Selectivity Index
[23] = Selectivity index, ratio of compound concentration showing <20 to <30% hemolysis in mouse RBC to MIC for fluconazole/ITC-resistant Candida albicans ATCC 64124; type: toxicity; details: red blood cells (erythrocytes), read-out: Selectivity Index
Candida albicans [24] = assay: Antifungal activity against fluconazole/ITC-resistant Candida albicans ATCC MYA-1237 measured after 48 hrs by CLSI M27-A3 protocol based method; type: functional; details: ATCC MYA-1237, 48 h
Candida parapsilosis = assay: Antifungal activity against Candida parapsilosis ATCC 22019 measured after 48 hrs by CLSI M27-A3 protocol based method; type: functional; details: Lodderomyces parapsilosis, ATCC 22019, 48 h
[25] = Selectivity index, ratio of CC50 for human A549 cells to MIC for Candida parapsilosis ATCC 22019; type: toxicity; details: read-out: Selectivity Index
[26] = target: Voltage-gated inwardly rectifying potassium channel KCNH2 (Homo sapiens, UniProt Q12809); assay: Inhibition of [3H]-dofetilide binding to human ERG expressed in HEK293 cell membranes measured after 1 hr by liquid scintillation counting method
Chain of Voltage-gated inwardly rectifying potassium channel KCNH2 (Q12809 whole entry): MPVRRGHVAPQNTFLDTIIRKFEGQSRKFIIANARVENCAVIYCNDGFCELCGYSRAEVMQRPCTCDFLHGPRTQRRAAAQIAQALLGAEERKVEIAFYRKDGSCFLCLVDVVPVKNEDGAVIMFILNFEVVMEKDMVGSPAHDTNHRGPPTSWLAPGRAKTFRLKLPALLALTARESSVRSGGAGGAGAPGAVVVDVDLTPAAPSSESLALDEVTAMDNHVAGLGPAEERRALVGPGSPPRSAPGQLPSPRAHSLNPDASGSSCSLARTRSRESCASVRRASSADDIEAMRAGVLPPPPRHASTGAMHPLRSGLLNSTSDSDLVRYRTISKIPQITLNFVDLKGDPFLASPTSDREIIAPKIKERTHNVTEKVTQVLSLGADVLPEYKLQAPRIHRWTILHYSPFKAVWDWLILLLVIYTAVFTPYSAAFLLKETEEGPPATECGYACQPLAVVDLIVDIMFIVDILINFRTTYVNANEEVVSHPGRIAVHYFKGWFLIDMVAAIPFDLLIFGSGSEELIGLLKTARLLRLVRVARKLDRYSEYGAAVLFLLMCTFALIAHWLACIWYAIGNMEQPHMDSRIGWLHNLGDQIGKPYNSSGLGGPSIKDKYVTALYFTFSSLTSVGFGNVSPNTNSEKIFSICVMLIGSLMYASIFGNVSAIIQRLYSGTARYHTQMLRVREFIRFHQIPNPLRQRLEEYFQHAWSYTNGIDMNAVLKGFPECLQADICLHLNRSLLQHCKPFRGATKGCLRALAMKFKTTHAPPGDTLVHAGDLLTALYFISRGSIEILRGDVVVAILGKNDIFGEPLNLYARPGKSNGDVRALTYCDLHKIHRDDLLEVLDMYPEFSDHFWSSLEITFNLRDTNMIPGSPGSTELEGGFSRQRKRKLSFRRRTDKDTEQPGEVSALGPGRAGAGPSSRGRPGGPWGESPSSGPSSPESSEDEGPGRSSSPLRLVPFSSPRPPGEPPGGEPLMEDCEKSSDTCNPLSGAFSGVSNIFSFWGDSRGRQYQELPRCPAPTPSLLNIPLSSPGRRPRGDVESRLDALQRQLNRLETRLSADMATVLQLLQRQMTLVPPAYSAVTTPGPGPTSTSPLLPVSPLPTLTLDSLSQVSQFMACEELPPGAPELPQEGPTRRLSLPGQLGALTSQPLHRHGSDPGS

[27] = Selectivity index, ratio of compound concentration showing <20 to <30% hemolysis in mouse RBC to MIC for fluconazole/ITC-resistant Candida albicans ATCC MYA-1237; type: toxicity; details: mouse red blood cells (RBC), read-out: Selectivity Index
[28] = Selectivity index, ratio of CC50 for human A549 cells to MIC for Aspergillus flavus ATCC MYA-3631; type: toxicity; details: read-out: Selectivity Index
Pichia kudriavzevii = assay: Antifungal activity against Candida krusei ATCC 6258 measured after 48 hrs by CLSI M27-A3 protocol based method; type: functional; details: ATCC 6258, 48 h
[29] = Selectivity index, ratio of compound concentration showing <20 to <30% hemolysis in mouse RBC to MIC for fluconazole/ITC-resistant Candida albicans ATCC 90819; type: toxicity; details: red blood cells (erythrocytes), read-out: Selectivity Index
[30] = Selectivity index, ratio of CC50 for human A549 cells to MIC for Aspergillus terreus ATCC MYA-3633; type: toxicity; details: read-out: Selectivity Index
[31] = Selectivity index, ratio of compound concentration showing <20 to <30% hemolysis in mouse RBC to MIC for fluconazole/ITC-resistant Candida albicans ATCC 10231; type: toxicity; details: red blood cells (erythrocytes), read-out: Selectivity Index
Aspergillus nidulans = assay: Antifungal activity against Aspergillus nidulans ATCC 38163 measured after 48 hrs by CLSI M38-A2 protocol based method; type: functional; details: ATCC 38163, 48 h
[32] = Selectivity index, ratio of compound concentration showing <20 to <30% hemolysis in mouse RBC to MIC for Candida parapsilosis ATCC 22019; type: toxicity; details: mouse red blood cells (RBC), read-out: Selectivity Index
[33] = Selectivity index, ratio of CC50 for human A549 cells to MIC for Candida glabrata ATCC 2001; type: toxicity; details: read-out: Selectivity Index
A549 = assay: Cytotoxicity against human A549 cells after 24 hrs by resazurin based assay; type: cell-based; details: a549, 24 h
[34] = Selectivity index, ratio of compound concentration showing <20 to <30% hemolysis in mouse RBC to MIC for Aspergillus nidulans ATCC 38163; type: toxicity; details: mouse red blood cells (RBC), read-out: Selectivity Index
[35] = Selectivity index, ratio of CC50 for human A549 cells to MIC for Candida krusei ATCC 6258; type: toxicity; details: read-out: Selectivity Index
[36] = Selectivity index, ratio of CC50 for human A549 cells to MIC for fluconazole/ITC-resistant Candida albicans ATCC MYA-1237; type: toxicity; details: read-out: Selectivity Index
[37] = Hemolytic activity in mouse RBC at 31.3 ug/ml after 1 hr relative to control; type: ADME, cell-based, Erythrocyte; details: red blood cells (erythrocytes), read-out: Activity
[38] = Selectivity index, ratio of compound concentration showing <20 to <30% hemolysis in mouse RBC to MIC for fluconazole/ITC-susceptible Candida albicans ATCC MYA-2310; type: toxicity; details: mouse red blood cells (RBC), read-out: Selectivity Index
[39] = Selectivity index, ratio of compound concentration showing <20 to <30% hemolysis in mouse RBC to MIC for Candida krusei ATCC 6258; type: toxicity; details: mouse red blood cells (RBC), read-out: Selectivity Index

COc1ccc(N/N=C/c2ccc(-c3cccc(/C=N/Nc4ccc(OC)cc4)c3)cc2)cc1
hemolysis at 1 h, 3.9 ug/ml [1]: 3%
selectivity ratio [2]: 1 to 32
MIC (Candida albicans [3]): 3.9 µg/mL (≈ 8.66 µM)
selectivity ratio [4]: 2.3
selectivity ratio [5]: 1 to 32
selectivity ratio [6]: 0.6
hemolysis at 1 h, 62.5 ug/ml [7]: 18.8%
MIC (Aspergillus flavus): > 31.3 µg/mL
selectivity ratio [8]: 2.3
Activity (Enterococcus): inactive
MIC (Candida albicans [9]): 15.6 µg/mL (≈ 34.6 µM)
hemolysis at 1 h, 1.95 ug/ml [10]: 4.5%
hemolysis at 1 h, 15.6 ug/ml ([11]; at 15.6 µg/mL): 7.8%
hemolysis at 1 h, 0.975 ug/ml [11]: 2.6%
Activity (Staphylococcus aureus): inactive
selectivity ratio [12]: 1 to 32
hemolysis at 1 h, 7.8 ug/ml [13]: 2.6%
selectivity ratio [14]: 9.3
hemolysis at 1 h, […] [15]: 0%
selectivity ratio [16]: 1 to 32
selectivity ratio [17]: 1.2
selectivity ratio [18]: 4.7
MIC (Aspergillus terreus): > 31.3 µg/mL
selectivity ratio [19]: 4.7
MIC (Candida albicans [20]): 3.9 µg/mL (≈ 8.66 µM)
CC50 (BEAS-2B): 14.1 µg/mL (≈ 31.3 µM)
MIC (Candida albicans [21]): 1.95 µg/mL (≈ 4.33 µM)
Activity (Listeria monocytogenes): inactive
selectivity ratio [22]: 1 to 32
selectivity ratio [23]: 1 to 32
MIC (Candida albicans [24]): 3.9 µg/mL (≈ 8.66 µM)
MIC (Candida parapsilosis): > 31.3 µg/mL
selectivity ratio [25]: 0.6
IC50 [26]: > 30 µM
selectivity ratio [27]: 1 to 32
selectivity ratio [28]: 0.6
MIC (Pichia kudriavzevii): 3.9 µg/mL (≈ 8.66 µM)
selectivity ratio [29]: 1 to 32
selectivity ratio [30]: 0.6
selectivity ratio [31]: 1 to 32
MIC (Aspergillus nidulans): 31.3 µg/mL (≈ 69.5 µM)
selectivity ratio [32]: 1 to 32
selectivity ratio [33]: 2.3
CC50 (A549): 18.2 µg/mL (≈ 40.4 µM)
selectivity ratio [34]: 1 to 32
selectivity ratio [35]: 4.7
selectivity ratio [36]: 4.7
hemolysis at 1 h, 31.3 ug/ml [37]: 9.6%
selectivity ratio [38]: 1 to 32
selectivity ratio [39]: 1 to 32
